In brackets after ≈: the same amount, converted by molar mass.
Legend:
[1] = test system: Mycobacterium avium; details: 104
Description: Inhibition of multidrug resistance efflux pump in Mycobacterium avium 104 assessed as potentiation of clarithromycin -induced antibacterial activity by measuring clarithromycin MIC at 1/4 MIC incubated for 3 days by MTT assay

[2] = test system: Mycobacterium avium; details: isolate MAV3
[3] = test system: Mycobacterium avium; details: isolate MAV2
Description: Inhibition of multidrug resistance efflux pump in Mycobacterium avium isolate MAV2 assessed as potentiation of clarithromycin -induced antibacterial activity by measuring clarithromycin MIC at 1/2 MIC incubated for 3 days by MTT assay (Rvb = >1024 ug/ml)

[4] = test system: Mycobacterium avium; details: 104 mc'2 3
[5] = test system: Mycobacterium avium; details: isolate MAV3; remark: listed apart in the source
[6] = test system: Mycobacterium avium; details: 104 mc'2 3; remark: listed apart in the source
[7] = test system: Mycobacterium avium; details: 104 mc'2 3; remark: listed apart in the source
[8] = test system: Mycobacterium avium; details: 104 mc'2 4
[9] = test system: Mycobacterium avium; details: isolate MAV3; remark: listed apart in the source
[10] = test system: Mycobacterium avium subsp. avium ATCC 25291
[11] = test system: Mycobacterium avium; details: isolate MAV3; remark: listed apart in the source
[12] = test system: Mycobacterium avium; details: 104 mc'2 4; remark: listed apart in the source
[13] = test system: Mycobacterium avium; details: isolate MAV1
Description: Inhibition of multidrug resistance efflux pump in Mycobacterium avium isolate MAV1 assessed as potentiation of ofloxacin-induced antibacterial activity by measuring ofloxacin MIC at 1/2 MIC incubated for 3 days by MTT assay (Rvb = 4 ug/ml)

[14] = test system: Mycobacterium avium; details: 104; remark: listed apart in the source
Description: Inhibition of multidrug resistance efflux pump in Mycobacterium avium 104 assessed as potentiation of clarithromycin -induced antibacterial activity by measuring clarithromycin MIC at 1/2 MIC incubated for 3 days by MTT assay

[15] = test system: Mycobacterium avium; details: 104 mc'2 3; remark: listed apart in the source
[16] = test system: Mycobacterium avium; details: isolate MAV4
[17] = test system: Mycobacterium avium; details: 104; remark: listed apart in the source
[18] = test system: Mycobacterium avium; details: isolate MAV2; remark: listed apart in the source
[19] = test system: Mycobacterium avium; details: isolate MAV2; remark: listed apart in the source
[20] = test system: Mycobacterium avium; details: 104 mc'2 4; remark: listed apart in the source
[21] = test system: Mycobacterium avium; details: isolate MAV3; remark: listed apart in the source
[22] = test system: Mycobacterium avium; details: 104 mc'2 4; remark: listed apart in the source
[23] = test system: Mycobacterium avium; details: 104 mc'2 3; remark: listed apart in the source
[24] = test system: Mycobacterium avium; details: isolate MAV4; remark: listed apart in the source
Description: Inhibition of multidrug resistance efflux pump in Mycobacterium avium isolate MAV4 assessed as potentiation of clarithromycin -induced antibacterial activity by measuring clarithromycin MIC at 1/4 MIC incubated for 3 days by MTT assay

[25] = test system: Mycolicibacterium smegmatis; assay: Antimycobacterial activity against Mycobacterium smegmatis str. MC2 155 assessed as reduction in bacterial viability incubated for 3 days by MTT assay; assay type: organism-based; details: 72 h
[26] = test system: Mycobacterium avium; details: in vivo, 72 h
Description: Antimycobacterial activity against Mycobacterium avium 104 mc'2 3 assessed as reduction in bacterial viability incubated for 3 days by MTT assay

[27] = test system: Mycobacterium avium; details: 104; remark: listed apart in the source
[28] = test system: Mycobacterium avium; details: 104; remark: listed apart in the source
[29] = test system: Mycobacterium avium; details: isolate MAV1; remark: listed apart in the source
[30] = test system: Mycobacterium avium; details: isolate MAV1; remark: listed apart in the source
[31] = test system: Mycobacterium avium; details: isolate MAV3; remark: listed apart in the source
[32] = test system: Mycobacterium avium; details: isolate MAV4; remark: listed apart in the source
[33] = test system: Mycobacterium avium; details: 104 mc'2 4; remark: listed apart in the source
[34] = test system: Mycobacterium avium; details: isolate MAV1; remark: listed apart in the source
[35] = test system: Mycobacterium avium; details: isolate MAV4; remark: listed apart in the source
[36] = test system: Mycobacterium avium subsp. avium ATCC 25291; remark: listed apart in the source
Description: Inhibition of multidrug resistance efflux pump in Mycobacterium avium ATCC 25291 assessed as potentiation of ethidium bromide-induced antibacterial activity by measuring ethidium bromide MIC at 1/2 MIC incubated for 3 days by MTT assay (Rvb = 50 ug/ml)

[37] = test system: Mycobacterium avium; details: 104; remark: listed apart in the source
[38] = test system: Mycobacterium avium; details: 104 mc'2 3; remark: listed apart in the source
[39] = test system: Mycobacterium avium; assay: Antimycobacterial activity against Mycobacterium avium isolate MAV4 assessed as reduction in bacterial viability incubated for 3 days by MTT assay; assay type: organism-based; details: 72 h
[40] = test system: Mycobacterium avium; details: isolate MAV1; remark: listed apart in the source
Description: Inhibition of multidrug resistance efflux pump in Mycobacterium avium isolate MAV1 assessed as potentiation of ofloxacin-induced antibacterial activity by measuring ofloxacin MIC at 1/4 MIC incubated for 3 days by MTT assay (Rvb = 4 ug/ml)

[41] = test system: Mycobacterium avium; details: 104 mc'2 3; remark: listed apart in the source
[42] = test system: Mycobacterium avium; details: isolate MAV4; remark: listed apart in the source
Description: Inhibition of multidrug resistance efflux pump in Mycobacterium avium isolate MAV4 assessed as potentiation of ethidium bromide-induced antibacterial activity by measuring ethidium bromide MIC at 1/4 MIC incubated for 3 days by MTT assay

[43] = test system: Mycobacterium avium; details: isolate MAV1; remark: listed apart in the source
[44] = test system: Mycobacterium avium; details: isolate MAV4; remark: listed apart in the source
[45] = test system: Mycobacterium avium; details: 104 mc'2 4; remark: listed apart in the source
[46] = test system: Mycobacterium avium subsp. avium ATCC 25291; remark: listed apart in the source
[47] = test system: Mycobacterium avium; assay: Antimycobacterial activity against Mycobacterium avium isolate MAV1 assessed as reduction in bacterial viability incubated for 3 days by MTT assay; assay type: organism-based; details: in vitro, 72 h
[48] = test system: Mycobacterium avium subsp. avium ATCC 25291; remark: listed apart in the source
Description: Inhibition of multidrug resistance efflux pump in Mycobacterium avium ATCC 25291 assessed as potentiation of clarithromycin -induced antibacterial activity by measuring clarithromycin MIC at 1/2 MIC incubated for 3 days by MTT assay

[49] = test system: Mycobacterium avium subsp. avium ATCC 25291; remark: listed apart in the source
[50] = test system: Mycobacterium avium; assay: Antimycobacterial activity against Mycobacterium avium isolate MAV2 assessed as reduction in bacterial viability incubated for 3 days by MTT assay; assay type: organism-based; details: 72 h
[51] = test system: Mycobacterium avium; details: 104; remark: listed apart in the source
[52] = test system: Mycobacterium avium subsp. avium ATCC 25291; remark: listed apart in the source
[53] = test system: Mycobacterium avium; assay: Antimycobacterial activity against Mycobacterium avium ATCC 25291 assessed as reduction in bacterial viability incubated for 3 days by MTT assay; assay type: organism-based; details: mycobacterium avium subsp. avium atcc 25291, 72 h
[54] = test system: Mycobacterium avium subsp. avium ATCC 25291; remark: listed apart in the source
[55] = test system: Mycobacterium avium; details: in vivo, 72 h; remark: listed apart in the source
Description: Antimycobacterial activity against Mycobacterium avium 104 mc'2 4 assessed as reduction in bacterial viability incubated for 3 days by MTT assay

[56] = test system: Mycobacterium avium; assay: Antimycobacterial activity against Mycobacterium avium isolate MAV3 assessed as reduction in bacterial viability incubated for 3 days by MTT assay; assay type: organism-based; details: 72 h
[57] = test system: Mycobacterium avium; details: 104 mc'2 4; remark: listed apart in the source
[58] = test system: Mycobacterium avium; details: isolate MAV4; remark: listed apart in the source
[59] = test system: Mycobacterium avium; details: isolate MAV2; remark: listed apart in the source
Description: Inhibition of multidrug resistance efflux pump in Mycobacterium avium isolate MAV2 assessed as potentiation of ofloxacin-induced antibacterial activity by measuring ofloxacin MIC at 1/4 MIC incubated for 3 days by MTT assay

[60] = test system: Mycobacterium avium subsp. avium ATCC 25291; remark: listed apart in the source
[61] = test system: Mycobacterium avium; details: isolate MAV2; remark: listed apart in the source
[62] = test system: Mycobacterium avium; details: isolate MAV2; remark: listed apart in the source
[63] = test system: Mycobacterium avium; details: isolate MAV1; remark: listed apart in the source
[64] = test system: Mycobacterium avium; details: 104 mc'2 4; remark: listed apart in the source
[65] = test system: Mycobacterium avium; details: isolate MAV3; remark: listed apart in the source

SMILES: CN(C)CCCN1c2ccccc2Sc2ccc(Cl)cc21 [CHLORPROMAZINE]
- MIC [1]: 4 µg/mL (≈ 12.5 µM)
- MIC [2]: 8 µg/mL (≈ 25.1 µM)
- MIC [3]: > 512 µg/mL
- MIC [4]: < 4 µg/mL
- MIC [5]: 8 µg/mL (≈ 25.1 µM)
- MIC [6]: > 512 µg/mL
- MIC [7]: > 512 µg/mL
- MIC [8]: 4 µg/mL (≈ 12.5 µM)
- MIC [9]: 8 µg/mL (≈ 25.1 µM)
- MIC [10]: < 0.25 µg/mL
- MIC [11]: 4 µg/mL (≈ 12.5 µM)
- MIC [12]: 128 µg/mL (≈ 401 µM)
- MIC [13]: < 0.0625 µg/mL
- MIC [14]: 1 µg/mL (≈ 3.14 µM)
- MIC [15]: < 4 µg/mL
- MIC [16]: 3.12 µg/mL (≈ 9.8 µM)
- MIC [17]: 64 µg/mL (≈ 201 µM)
- MIC [18]: 6.25 µg/mL (≈ 19.6 µM)
- MIC [19]: > 512 µg/mL
- MIC [20]: 8 µg/mL (≈ 25.1 µM)
- MIC [21]: 4 µg/mL (≈ 12.5 µM)
- MIC [22]: 6.25 µg/mL (≈ 19.6 µM)
- MIC [23]: 6.25 µg/mL (≈ 19.6 µM)
- MIC [24]: 2 µg/mL (≈ 6.27 µM)
- MIC [25]: 60 µg/mL (≈ 188 µM)
- MIC [26]: 30 µg/mL (≈ 94.1 µM)
- MIC [27]: 2 µg/mL (≈ 6.27 µM)
- MIC [28]: 8 µg/mL (≈ 25.1 µM)
- MIC [29]: 1.56 µg/mL (≈ 4.89 µM)
- MIC [30]: < 4 µg/mL
- MIC [31]: 12.5 µg/mL (≈ 39.2 µM)
- MIC [32]: 2 µg/mL (≈ 6.27 µM)
- MIC [33]: 64 µg/mL (≈ 201 µM)
- MIC [34]: < 0.195 µg/mL
- MIC [35]: 128 µg/mL (≈ 401 µM)
- MIC [36]: < 0.39 µg/mL
- MIC [37]: 0.5 µg/mL (≈ 1.57 µM)
- MIC [38]: < 4 µg/mL
- MIC [39]: 30 µg/mL (≈ 94.1 µM)
- MIC [40]: 1 µg/mL (≈ 3.14 µM)
- MIC [41]: 1 µg/mL (≈ 3.14 µM)
- MIC [42]: 12.5 µg/mL (≈ 39.2 µM)
- MIC [43]: 0.0625 µg/mL (≈ 0.196 µM)
- MIC [44]: 32 µg/mL (≈ 100 µM)
- MIC [45]: > 512 µg/mL
- MIC [46]: 16 µg/mL (≈ 50.2 µM)
- MIC [47]: 30 µg/mL (≈ 94.1 µM)
- MIC [48]: < 0.125 µg/mL
- MIC [49]: < 0.5 µg/mL
- MIC [50]: 30 µg/mL (≈ 94.1 µM)
- MIC [51]: 64 µg/mL (≈ 201 µM)
- MIC [52]: 16 µg/mL (≈ 50.2 µM)
- MIC [53]: 30 µg/mL (≈ 94.1 µM)
- MIC [54]: < 1 µg/mL
- MIC [55]: 30 µg/mL (≈ 94.1 µM)
- MIC [56]: 30 µg/mL (≈ 94.1 µM)
- MIC [57]: > 512 µg/mL
- MIC [58]: 4 µg/mL (≈ 12.5 µM)
- MIC [59]: 2 µg/mL (≈ 6.27 µM)
- MIC [60]: < 0.5 µg/mL
- MIC [61]: 2 µg/mL (≈ 6.27 µM)
- MIC [62]: 4 µg/mL (≈ 12.5 µM)
- MIC [63]: < 0.031 µg/mL
- MIC [64]: > 512 µg/mL
- MIC [65]: 1 µg/mL (≈ 3.14 µM)

SMILES: CSc1ccc2c(c1)N(CCC1CCCCN1C)c1ccccc1S2 (stereo not given) [THIORIDAZINE]
- MIC [1]: 4 µg/mL (≈ 10.8 µM)
- MIC [2]: 8 µg/mL (≈ 21.6 µM)
- MIC [3]: 256 µg/mL (≈ 691 µM)
- MIC [4]: < 4 µg/mL
- MIC [5]: 64 µg/mL (≈ 173 µM)
- MIC [6]: > 512 µg/mL
- MIC [7]: > 512 µg/mL
- MIC [8]: 4 µg/mL (≈ 10.8 µM)
- MIC [9]: 16 µg/mL (≈ 43.2 µM)
- MIC [10]: 8 µg/mL (≈ 21.6 µM)
- MIC [11]: 4 µg/mL (≈ 10.8 µM)
- MIC [12]: 128 µg/mL (≈ 345 µM)
- MIC [13]: < 0.0625 µg/mL
- MIC [14]: 2 µg/mL (≈ 5.4 µM)
- MIC [15]: < 4 µg/mL
- MIC [16]: 12.5 µg/mL (≈ 33.7 µM)
- MIC [17]: 128 µg/mL (≈ 345 µM)
- MIC [18]: 6.25 µg/mL (≈ 16.9 µM)
- MIC [19]: > 512 µg/mL
- MIC [20]: 8 µg/mL (≈ 21.6 µM)
- MIC [21]: 4 µg/mL (≈ 10.8 µM)
- MIC [22]: 12.5 µg/mL (≈ 33.7 µM)
- MIC [23]: 12.5 µg/mL (≈ 33.7 µM)
- MIC [24]: 4 µg/mL (≈ 10.8 µM)
- MIC [25]: 30 µg/mL (≈ 81 µM)
- MIC [26]: 30 µg/mL (≈ 81 µM)
- MIC [27]: 4 µg/mL (≈ 10.8 µM)
- MIC [28]: 64 µg/mL (≈ 173 µM)
- MIC [29]: 0.78 µg/mL (≈ 2.1 µM)
- MIC [30]: < 4 µg/mL
- MIC [31]: 12.5 µg/mL (≈ 33.7 µM)
- MIC [32]: 4 µg/mL (≈ 10.8 µM)
- MIC [33]: 32 µg/mL (≈ 86.3 µM)
- MIC [34]: < 0.195 µg/mL
- MIC [35]: 128 µg/mL (≈ 345 µM)
- MIC [36]: 6.25 µg/mL (≈ 16.9 µM)
- MIC [37]: 2 µg/mL (≈ 5.4 µM)
- MIC [38]: < 4 µg/mL
- MIC [39]: 30 µg/mL (≈ 81 µM)
- MIC [40]: 1 µg/mL (≈ 2.7 µM)
- MIC [41]: < 0.125 µg/mL
- MIC [42]: 25 µg/mL (≈ 67.5 µM)
- MIC [43]: 0.0625 µg/mL (≈ 0.169 µM)
- MIC [44]: 64 µg/mL (≈ 173 µM)
- MIC [45]: > 512 µg/mL
- MIC [46]: 32 µg/mL (≈ 86.3 µM)
- MIC [47]: 30 µg/mL (≈ 81 µM)
- MIC [48]: 1 µg/mL (≈ 2.7 µM)
- MIC [49]: 32 µg/mL (≈ 86.3 µM)
- MIC [50]: 30 µg/mL (≈ 81 µM)
- MIC [51]: 256 µg/mL (≈ 691 µM)
- MIC [52]: 32 µg/mL (≈ 86.3 µM)
- MIC [53]: 30 µg/mL (≈ 81 µM)
- MIC [54]: 4 µg/mL (≈ 10.8 µM)
- MIC [55]: 30 µg/mL (≈ 81 µM)
- MIC [56]: 30 µg/mL (≈ 81 µM)
- MIC [57]: > 512 µg/mL
- MIC [58]: 8 µg/mL (≈ 21.6 µM)
- MIC [59]: 1 µg/mL (≈ 2.7 µM)
- MIC [60]: 4 µg/mL (≈ 10.8 µM)
- MIC [61]: 0.25 µg/mL (≈ 0.675 µM)
- MIC [62]: 0.25 µg/mL (≈ 0.675 µM)
- MIC [63]: < 0.031 µg/mL
- MIC [64]: > 512 µg/mL
- MIC [65]: 2 µg/mL (≈ 5.4 µM)
